Data taken from ChEMBL document CHEMBL1141524 (Bioorg Med Chem Lett, 2008).
Values joined by “and” are separate entries in the source; they are usually repeats but may differ in a detail not shown here. Equal values may be shown once. Non-standard residues stand in square brackets, D forms with d. Residues, ends and D or L forms follow the SMILES beside them. Gly(N-4-hydroxybenzyl) = O=C(O)CNCc1ccc(O)cc1

Experiment: Displacement of [3H]neurotensin from pig NTR1
Parameters: species or system Sus scrofa

Row | Compound | Ki
1 | CC[C@H](C)[C@H](NC(=O)[C@H](Cc1ccc(O)cc1)NC(=O)[C@@H]1CCCN1C(=O)[C@H](CCCNC(=N)N)NC(=O)C[N+](C)(C)C)C(=O)N[C@@H](CC(C)C)C(=O)O | 0.65 nM
2 | CC[C@H](C)[C@H](NC(=O)[C@H](Cc1ccc(O)cc1)NC(=O)[C@@H]1CCCN1C(=O)[C@H](CCCNC(=N)N)NC(=O)CCC(=O)O)C(=O)N[C@@H](CC(C)C)C(=O)O | 2300 nM
3 | CC[C@H](C)[C@H](NC(=O)[C@H](Cc1ccc(O)cc1)N1C(=O)NC(=O)C2(CCCN2C(=O)[C@H](CCCNC(=N)N)NC(=O)[C@@H](N)CCCNC(=N)N)C1=O)C(=O)N[C@@H](CC(C)C)C(=O)O (some centres not stated) | 10000 nM
4 | CC[C@@H](C)[C@H](NC(=O)[C@H](Cc1ccc(O)cc1)N1CC=CC[C@]2(CCCN2C(=O)[C@H](CCCNC(=N)N)NC(=O)[C@@H](N)CCCNC(=N)N)C1=O)C(=O)N[C@@H](CC(C)C)C(=O)O | 18000 nM
5 | CC[C@H](C)[C@H](NC(=O)[C@H](Cc1ccc(O)cc1)N1CC/C=C\C[C@H]2CCN(C(=O)[C@H](CCCNC(=N)N)NC(=O)[C@@H](N)CCCNC(=N)N)[C@@H]2C1=O)C(=O)N[C@@H](CC(C)C)C(=O)O | 2400 nM and 8600 nM
6 | CC[C@H](C)[C@H](NC(=O)[C@H](Cc1ccc(O)cc1)NC(=O)[C@@H]1CCCN1C(=O)CN(CCCCN)C(=O)[C@@H](N)CCCCN)C(=O)N[C@@H](CC(C)C)C(=O)O | 5.7 nM
7 | CC[C@H](C)[C@H](NC(=O)[C@H](Cc1ccc(O)cc1)NC(=O)[C@@H]1CCCN1C(=O)[C@H](CCCCN)NC(=O)[C@@H](N)CCCCN)C(=O)N[C@@H](CC(C)C)C(=O)O | 2.6 nM
8 | H-RRPYAIL-OH | 6.8 nM
9 | CC[C@H](C)[C@H](NC(=O)[C@H](Cc1ccc(O)cc1)N1CC=C[C@]2(CCCN2C(=O)[C@H](CCCNC(=N)N)NC(=O)[C@@H](N)CCCNC(=N)N)C1=O)C(=O)N[C@@H](CC(C)C)C(=O)O | 7400 nM
10 | H-DRPYIL-OH | 150 nM
11 | CC[C@H](C)[C@H](NC(=O)[C@H](Cc1ccc(O)cc1)NC(=O)[C@@H]1CCCN1C(=O)[C@H](CCCNC(=N)N)NC(=O)[C@@H](N)CCCNC(=N)N)C(=O)N[C@@H](CC(C)C)C(N)=O | 0.18 nM
12 | H-RRAPYIL-OH | 9.6 nM
13 | H-RRPYILA-OH | 0.27 nM
14 | CC[C@H](C)[C@H](NC(=O)[C@H](Cc1ccc(O)cc1)NC(=O)C[C@@H]1CCCN1C(=O)[C@H](CCCNC(=N)N)NC(=O)[C@@H](N)CCCNC(=N)N)C(=O)N[C@@H](CC(C)C)C(=O)O | 28 nM
15 | CC[C@H](C)[C@H](NC(=O)CN(Cc1ccc(O)cc1)C(=O)[C@@H]1CCCN1C(=O)[C@H](CCCCN)NC(=O)[C@@H](N)CCCCN)C(=O)N[C@@H](CC(C)C)C(=O)O (H-KKP[Gly(N-4-hydroxybenzyl)]IL-OH) | 11000 nM
16 | CC[C@H](C)[C@H](NC(=O)[C@H](Cc1ccc(O)cc1)N1C(=O)NC(=O)C2(CCCN2C(=O)[C@H](CCCNC(=N)N)NC(=O)[C@@H](N)CCCNC(=N)N)C1=O)C(=O)N[C@@H](CC(C)C)C(=O)O (single isomer, unassigned; diastereomer 1) | 1400 nM
17 | CC[C@H](C)[C@H](NC(=O)[C@H](Cc1ccc(O)cc1)NC(=O)[C@@H]1CCCN1C(=O)[C@H](CCCCN)NC(=O)CNCCCCN)C(=O)N[C@@H](CC(C)C)C(=O)O | 0.45 nM
